Experimental data taken from patent publication US20070224165A1, “Neuroprotective Effects of Gly-Pro-Glu Following Intravenous Infusion” (Neuren Pharmaceuticals Limited, priority 2003, published 2007).

Experiments:
[1] = rat, in vivo, iv, 3 mg/kg
Method: (§1) The ED-50 was 195 pg/tube, and the limit of detection was 2 pg/ml. The intra-assay CV was <10% over the range 0.5 to 25 ng/ml. Any samples reading off the standard curve were further diluted before being re-assayed.

in vivo [2] = details: rat, iv, 3 mg/kg
Method: as §1

in vivo [3] = details: rat, iv, 30 mg/kg
Method: Blood samples (≈220 ul) were collected into heparinized tubes containing 20 μl Sigma protease inhibitor cocktail for mammalian tissues diluted at a 1:9 ratio in 0.1 M PBS (pH=7). The samples were collected at 20, 10 and 0 min before and 1, 2, 4, 8, 16, 32 and 64 min after injection. […] The samples were centrifuged at 3000× g for 15 min at 4° C. and the plasma removed and stored at −80° C. until extraction and assay.

Which results are given for `NCC(=O)N1CCC[C@H]1C(=O)N[C@@H](CCC(=O)O)C(=O)O` [GPE, glycine-proline-glutamate]?
time for plasma GPE to decline back to baseline values [1]: ≤ 8 min; level at 8 min (in vivo [2]): 9.8 ± 1.33 ng/mL; Pro-Glu in plasma by HPLC (in vivo [3]): could not be identified; level at 1 min (in vivo [3]): 33000 ng/mL
